Key:
aldose reductase = biological target: T1, aldose reductase (Bos taurus, UniProt P16116); assay: in vitro aldose reductase inhibition (modified Hayman and Kinoshita procedure); format: biochemical, bovine; details: for inhibition at 10 µM: 10^-5 molar, read-out: % Inhibition at Different Molar Concentration (in vitro), 10^-5; for inhibition at 1 µM: 10^-6 molar, read-out: % Inhibition at Different Molar Concentration (in vitro), 10^-6; for inhibition at 0.1 µM: 10^-7 molar, read-out: % Inhibition at Different Molar Concentration (in vitro), 10^-7
T1 construct: the preparation of the enzyme from bovine lens; from tissue; host or cells: bovine lens
Excerpt: In the present case the procedure of Hayman and Kinoshita is modified in that the final chromatography step is omitted in the preparation of the enzyme from bovine lens.

[1] = system: accumulation of dulcitol in the lenses; assay: galactosemic rats, dulcitol accumulation in the lens; format: in vivo, rat (Sprague-Dawley); details: 4 days, vs untreated galactosemic rats
Excerpt: The aldose reductase inhibiting property of the compounds of this invention and the utilization of the compounds in preventing, diminishing and alleviating diabetic complications are demonstrable in experiments using galactosemic rats, see Dvornik et al., cited above. Such experiments are exemplified hereinbelow after the listing of the following general comments pertaining to these experiments:
(a) Four or more groups of six male rats, 50-70 g, Sprague-Dawley strain, were used. The first group, the control group, was fed a mixture of laboratory chow (rodent laboratory chow, Purina) and glucose at 20% (w/w %) concentration. The untreated galactosemic group was fed a similar diet in which galactose is substituted for glucose. The third group was fed a diet prepared by mixing a given amount of the test compound with the galactose containing diet. The concentration of galactose in the diet of the treated groups was the same as that for the untreated galactosemic group.
(b) After four days, the animals were killed by decapitation. The eyeballs were removed and punctured with a razor blade; the freed lenses were rolled gently on filter paper and weighed. The sciatic nerves were dissected as completely as possible and weighed. Both tissues were frozen and can be kept up to two weeks before being analyzed for dulcitol.
(c) The polyol determination was performed by a modification of the procedure of M. Kraml and L. Cosyns, Clin. Biochem., 2, 373 (1969). Only two minor reagent changes were made: (a) The rinsing mixture was an aqueous 5% (w/v) trichloroacetic acid solution and (b) the stock solution was prepared by dissolving 25 mg of dulcitol in 100 ml of an aqueous trichloroacetic acid solution. [N.B.: For each experiment the average value found in the tissue from rats fed the glucose diet was subtracted from the individual values found in the corresponding rat tissue to obtain the amount of polyol accumulated].
The figures under L and N represent the percentage decrease of dulcitol accumulation in the tissues of the lens and sciatic nerve, respectively, for treated rats as compared to untreated rats.

| inhibition at 10 µM (aldose reductase) | inhibition at 1 µM (aldose reductase) | inhibition at 0.1 µM (aldose reductase) | SMILES | percentage decrease of dulcitol accumulation, lens (L) ([1]; 162 mg/kg/day in diet) | percentage decrease of dulcitol accumulation, lens (L) ([1]; 11 mg/kg/day in diet) | percentage decrease of dulcitol accumulation, lens (L) ([1]; 144 mg/kg/day in diet) | percentage decrease of dulcitol accumulation, lens (L) ([1]; 26 mg/kg/day in diet) |
| --- | --- | --- | --- | --- | --- | --- | --- |
| 91% | 77% | 32% | CN(CC(=O)O)C(=S)c1ccc(Br)c2ccccc12 [Example 33, N-[(4-bromo-1-naphthalenyl)thioxomethyl]-N-methylglycine] | – | – | – | – |
| 99% | 91% | 72% | COc1ccc2c(C(=S)N(C)CC(=O)O)cccc2c1Br [Example 41, N-[(5-bromo-6-methoxy-1-naphthalenyl)thioxomethyl]-N-methylglycine] | 34% | – | – | – |
| 88% | 44% | 4% | CN(CC(=O)O)C(=S)c1cccc2c(Br)c(OCc3ccc(Cl)cc3)ccc12 [Example 53a, N-[[5-bromo-6-(4-chlorophenylmethoxy)-1-naphthalenyl]thioxomethyl]-N-methylglycine] | – | – | – | – |
| 86% | 37% | 11% | CN(CC(=O)O)C(=S)c1cccc2c(Br)c(OCc3cccc(C(F)(F)F)c3)ccc12 [Example 53, N-[[5-bromo-6-[3-(trifluoromethyl)phenylmethoxy]-1-naphthalenyl]thioxomethyl]-N-methylglycine] | – | – | – | – |
| 86% | 69% | 20% | O=C(O)CN(Cc1ccccc1)C(=S)c1cccc2c(Br)cccc12 [Example 59, N-[(5-bromo-1-naphthalenyl)thioxomethyl]-N-(phenylmethyl)glycine] | – | – | – | – |
| 86% | 65% | 19% | CCCCN(CC(=O)O)C(=S)c1cccc2c(Br)cccc12 [Example 58, N-[(5-bromo-1-naphthalenyl)thioxomethyl]-N-butylglycine] | – | – | – | – |
| 92% | 88% | 55% | Cc1ccc2c(C(=S)N(C)CC(=O)O)cccc2c1Br [Example 42, N-[(5-bromo-6-methyl-1-naphthalenyl)thioxomethyl]-N-methylglycine] | – | – | – | – |
| 88% | 73% | 25% | CN(CC(=O)O)C(=S)c1ccc(Cl)c2ccccc12 [Example 44, N-[(4-chloro-1-naphthalenyl)thioxomethyl]-N-methylglycine] | – | – | – | – |
| 85% | 51% | 13% | CN(CC(=O)O)C(=S)c1cccc2ccccc12 [Example 43, N--((1naphthalenyl)thioxomethyl)-N--methylglycine] | – | – | – | – |
| 83% | 64% | 17% | COc1cccc2c(C(=S)N(C)CC(=O)O)cccc12 [Example 35, N-[(5-methoxy-1-naphthalenyl)thioxomethyl]-N-methylglycine] | – | – | – | – |
| 92% | 77% | 27% | C=CCN(CC(=O)O)C(=S)c1cccc2c(Br)cccc12 [Example 56, N-[(5-bromo-1-naphthalenyl)thioxomethyl]-N-(2-propylene)glycine] | – | – | – | – |
| 89% | 79% | 32% | CN(CC(=O)O)C(=S)c1cccc2c(C#N)cccc12 [Example 38, N-[(5-cyano-1-naphthalenyl)thioxomethyl]-N-methylglycine] | – | – | – | – |
| 85% | 72% | 24% | CCN(CC(=O)O)C(=S)c1cccc2c(Br)cccc12 [Example 57, N-[(5-bromo-1-naphthalenyl)thioxomethyl]-N-ethylglycine] | – | – | – | – |
| 89% | 74% | 26% | Cc1cccc2c(C(=S)N(C)CC(=O)O)cccc12 [Example 36, N-[(5-methyl-1-naphthalenyl)thioxomethyl]-N-methylglycine] | – | – | – | – |
| 64% | 21% | – | CN(CC(=O)O)C(=O)c1cccc2c(Br)cccc12 [N-[(5-Bromo-1-naphthalenyl)carbonyl]-N-methylglycine] | – | – | – | – |
| 54% | 14% | – | O=C(O)CNC(=S)c1cccc2c(Br)cccc12 [Example 54, N-[(5-bromo-1-naphthalenyl)thioxomethyl]glycine] | – | – | – | – |
| 8% | – | – | COC(=O)CN(C)C(=S)c1cccc2c(Br)cccc12 [Example 3, N-[(5-Bromo-1-naphthalenyl)thioxomethyl]-N-methylglycine Methyl Ester] | – | – | – | – |
| 93% | 91% | 55% | CCCCCOc1ccc2c(C(=S)N(C)CC(=O)O)cccc2c1Br [Example 37, N-[(5-bromo-6-pentyloxy-1-naphthalenyl)thioxomethyl]-N-methylglycine] | – | – | – | – |

The next lines start with the compound.

| SMILES | inhibition at 10 µM (aldose reductase) | inhibition at 1 µM (aldose reductase) | inhibition at 0.1 µM (aldose reductase) | percentage decrease of dulcitol accumulation, lens (L) ([1]; 162 mg/kg/day in diet) | percentage decrease of dulcitol accumulation, lens (L) ([1]; 11 mg/kg/day in diet) | percentage decrease of dulcitol accumulation, lens (L) ([1]; 144 mg/kg/day in diet) | percentage decrease of dulcitol accumulation, lens (L) ([1]; 26 mg/kg/day in diet) |
| --- | --- | --- | --- | --- | --- | --- | --- |
| COc1c(Cl)cc(C(=S)NCC(=O)O)c2ccccc12 [Example 32 (H, H, 3-Cl, 4-CH3 O), N-[(3-chloro-4-methoxy-1-naphthalenyl)thioxomethyl]glycine] | 61% | 16% | – | – | – | – | – |
| CN(CC(=O)O)C(=S)c1cccc2c(C(F)(F)F)cccc12 [Example 53b, N-[[(5-trifluoromethyl)-1-naphthalenyl]thioxomethyl]-N-methylglycine] | 93% | 84% | 33% | – | 2% | – | – |
| CN(CC(=O)O)C(=S)c1cccc2c([N+](=O)[O-])cccc12 [Example 39, N-[(5-nitro-1-naphthalenyl)thioxomethyl]-N-methylglycine] | 91% | 83% | 43% | – | – | – | – |
| COCCCOc1ccc2c(C(=S)N(C)CC(=O)O)cccc2c1Br [Example 49, N-[[5-bromo-6-(3-methoxy-propoxy)-1-naphthalenyl]thioxomethyl]-N-methylglycine] | 92% | 87% | 38% | – | – | – | – |
| COc1ccc2c(C(=S)N(C)CC(=O)O)cccc2c1I [Example 47, N-[(5-iodo-6-methoxy-1-naphthalenyl)thioxomethyl]-N-methylglycine] | 98% | 95% | 72% | – | – | – | – |
| COc1ccc2c(C(=S)N(C)CC(=O)O)ccc(OC)c2c1C(F)(F)F [CH3, H, 4-CH3 O, 5-CF3,6-CH3 O, N-[[4,6-dimethoxy-5-(trifluoromethyl)-1-naphthalenyl]thioxomethyl]-N-methylglycine] | – | – | – | – | – | 33% | – |
| C=C(C)c1cccc2c(C(=S)N(C)CC(=O)O)cccc12 [Example 50, N-[[5-(1-methylethenyl)-1-naphthalenyl]thioxomethyl]-N-methylglycine] | 92% | 74% | 19% | – | – | – | – |
| CCCN(CC(=O)O)C(=S)c1cccc2c(Br)cccc12 [Example 55, N-[(5-bromo-1-naphthalenyl)thioxomethyl]-N-propylglycine] | 91% | 70% | 19% | – | – | – | – |
| CN(CC(=O)O)C(=S)c1cccc2cccc(Br)c12 [Example 34, N-[(8-bromo-1-naphthalenyl)thioxomethyl]-N-methylglycine] | 88% | 75% | 24% | – | – | – | – |
| COc1ccc2c(C(=S)N(C)CC(=O)O)cccc2c1C(F)(F)F [Example 52, N-[[5-(trifluoromethyl)-6-methoxy-1-naphthalenyl]thioxomethyl]-N-methylglycine] | – | – | – | – | – | – | 15% |
| CC(C)c1cccc2c(C(=S)N(C)CC(=O)O)cccc12 [Example 51, N-[[5-(1-methylethyl)-1-naphthalenyl]thioxomethyl]-N-methylglycine] | 91% | 72% | 21% | – | – | – | – |
| COc1ccc2c(C(=O)N(C)CC(=O)O)cccc2c1C(F)(F)F [N-[[5-(trifluoromethyl)-6-methoxy-1-naphthalenyl]carbonyl]-N-methylglycine] | 94% | 93% | 60% | – | – | – | – |
| COc1ccc2c(C(=S)N(C)CC(=O)O)cccc2c1C#N [Example 48, N-[(5-cyano-6-methoxy-1-naphthalenyl)thioxomethyl]-N-methylglycine] | 98% | 93% | 74% | – | – | – | – |
